Here are results for eleven molecules from patent US8969312B2, “Low side effect pharmaceutical composition containing antituberculosis drugs” (priority 2011, dated 2015).

The target of data set [1] is T1, CYP2E1 (Homo sapiens, UniProt P05181). The data set is described as follows: in vitro. The settings on record: human liver microsomes, pH 7.4, probe chlorzoxazone (6-hydroxylation). A general note: Microsomes from liver hold many membrane-bound enzymes, among them those of drug oxidation.
For data set [2], the target named is T1, CYP2E1. The experiment in a line: Human liver microsomal CYP2E1, chlorzoxazone 6-hydroxylation.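 For all read-outs here: chlorzoxazone added as substrate, 6-hydroxychlorzoxazone formation quantified by LC/MS/MS after 30 min at 37 °C with NADP+ regenerating system, compared against solvent control without test sample.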 The settings on record: human; for inhibition at 30 min, 0.08 % (w/v) / inhibition at 30 min, 16.5 µM / inhibition at 30 min, 33 µM / inhibition at 30 min, 66 µM: human liver microsomes, pH 7.4, probe Chlorzoxazone; for inhibition at 30 min, 0.167 % (w/v): microsomes, pH 7.4.

Data set [3] relates to Male SD (Sprague-Dawley) rats. The data set is described as follows: Rat study of INH combined with DSF and/or BNPP (AST, ALT, histology, 8-iso-PGF2α, GSP, GEC). The class given is in vivo. The procedure:
The body weight of the rats was monitored throughout the experiment. Rats were anesthetized with sodium pentobarbital intraperitoneally (i.p.) at the dose of 50 mg/kg and Galactose was injected intravenously through a polyethylene catheter positioned in internal jugular vein. The catheter was positioned by cut-down technique and its end was embedded under the skin behind the neck. After the surgery, the rats were fasted overnight during the recovery period (about 16 hours) with unrestricted water access.
Animals were randomized into one of five groups, each involving three treatments. The first treatment involved either a BNPP injection of 25 mg/kg or a BNPP vehicle (VEH1) injection (saline). […] The second treatment involved injections of either 100 mg/kg DSF or DSF vehicle (VEH2, corn oil). DSF was dissolved in corn oil and i.p. injected at a volume of […]. The third treatment involved injections of INH (25 mg/kg) or INH vehicle (VEH3, saline). INH was dissolved in saline (0.9% NaCl), and i.p. injected at a volume of […]. The first treatment (BNPP or VEH1) was administered 30 minutes before the third treatment (INH or VEH3), and the second treatment (DSF or VEH2) was administered 15 minutes before the third treatment (INH or VEH3).
Galactose elimination capacity (GEC) test was performed 16 hours […] at the end of 21 days-treatment to measure the liver function.
After 21 days treatment, the rats were sacrificed with ether and blood samples collected in test tubes containing EDTA by dorsal aorta extract. The blood samples were centrifuged at 13,000 g for 15 min at 4° C. and plasma was aliquot into eppendorf tubes and stored at −80° C.
(§1) After the rats were sacrificed, the livers were subjected to histology analysis.
All isomers of PGF2α were dissolved or diluted in adequate amount of ethanol and after aliquot, stored at −70° C. As an internal standard, 10 ng of 8-iso-PGF2α-d4 was mixed with 0.5 ml of plasma in a glass tube and was then purified by a C18 Solid-Phase Extraction column (J. T. Baker, MA, USA). Sample eluants were evaporated under a stream of nitrogen and re-dissolved in 50 μl acetonitrile:water (15:85 v/v) solution followed by vortex for 30 seconds and 10 μl extract was further analyzed with a LC/MS/MS system.
Shimadzu system control and one Shimadzu autosampler (Shimadzu, Japan). HPLC purification of the extract by C18 column (mesh size 5-μm, diameter 50×2.1 mm) using 2 mM ammonium acetate/acetonitrile, ACN gradient as mobile phase (t=0 mM, 15% ACN; t=6 mM, 70% ACN; t=7 mM, 90% ACN; t=8 mM, 90% ACN; t=8.5 min, 15% ACN). […] Such HPLC system was connected to a triple stage quadrupole mass spectrometer (API3000, Applied Biosystem, Foster City, Calif., USA) and is equipped with a Turbo Ion Spray ionization source, and uses negative electrospray for ionization. Such spectrophotometer uses diffusion of standard solution of 200 ng/ml 8-iso-PGF2α or 8-iso-PGF2α-d4 to optimize the mode for multiple reaction monitoring (MRM).
All rats were subjected to GSP and GEC tests.

Data set [4] has as its system 129/sv mice. The data set is described as follows: Mouse study of INH/RIF with oral Kaempferol, Mannitol, Saccharin, Sucralose, Dicalcium phosphate or Crospovidone. The settings on record: 3 weeks, in words. It counts as in vivo. The text has this: Animals were randomized into one of thirteen groups, each involving three treatments. […].
All mice were subjected to GSP test.

Data set [5] concerns the target T2, human liver microsomal cytochrome P450 2E1 (CYP2E1) (Homo sapiens, UniProt P05181). The data set is described as follows: Human liver microsomal CYP2E1, chlorzoxazone 6-hydroxylation.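 Note: chlorzoxazone added as substrate, 6-hydroxychlorzoxazone formation quantified by LC/MS/MS after 30 min at 37 °C with NADP+ regenerating system, compared against solvent control without test sample.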
In data set [6] the target is T2, human liver microsomal cytochrome P450 2E1 (CYP2E1).
The test system of data set [7] is Male SD (Sprague-Dawley) rats. The experiment in a line: Rat study of PZA combined with BNPP (AST, ALT, histology, GSP). It counts as in vivo. The procedure: The body weight of the rats was monitored throughout the experiment. Rats were anesthetized with sodium pentobarbital intraperitoneally (i.p.) at the dose of 50 mg/kg and galactose was injected intravenously through a polyethylene catheter positioned in internal jugular vein. The catheter was positioned by cut-down technique and its end was embedded under the skin behind the neck. After the surgery, the rats were fasted overnight during the recovery period (about 16 hours) with unrestricted water access.
Animals were randomized into one of five groups, each involving three treatments. The first treatment involved either a BNPP injection of 50 mg/kg or a BNPP vehicle (VEH1) injection (saline). […] The second treatment involved injections of either 500 mg/kg PZA or PZA vehicle (VEH2, saline). PZA was dissolved in saline and i.p. injected at a volume of […]. The first treatment (BNPP or VEH1) was administered 15 minutes before the […].
2. PZA group (PZA, n=10): continuously injections of PZA, VEH1 and VEH2 intraperitoneally once every day for 49 days;
3. BNPP-PZA group (BNPP-PZA, n=10): continuously injections of BNPP, PZA and VEH2 intraperitoneally once every day for 49 days;
as §1
All rats were subjected to GSP tests.

Data set [8] relates to amidase. The data set is described as follows: Mouse liver microsomal amidase, isoniazid to isonicotinic acid. The class given is biochemical.
Data set [9] has as its system 129/sv mice. The experiment in a line: Mouse study of INH/RIF/PZA with oral Mannitol (GSP). It counts as in vivo. The settings on record: in words.
Method: Mice were anesthetized with ether at the dose of 50 mg/kg and galactose was retro-orbitally injected and blood samples were collected 60 min after injection through tail vein.
Animals were randomized into one of three groups, each involving four treatments. […] The second treatment involved injections of 50 mg/kg INH or INH vehicle (VEH1, normal saline). […] The third treatment involved injections of RIF (100 mg/kg) or RIF vehicle (VEH2, saline). […] The fourth treatment involved injections of PZA (250 mg/kg) or PZA vehicle (VEH3, saline).
Data set [10] deals with cytochrome P450 2E1 (CYP2E1) (Homo sapiens, UniProt P05181). The experiment in a line: CYP2E1 High Throughput Inhibitor Screening Kit, cDNA synthesized microsomal CYP2E1 (MFC to HFC). The settings on record: Table 3; minimum tested concentration (mg/L) × volume of human liver and intestine (3L). The text has this: CYP2E1 High Throughput Inhibitor Screening Kit (BD Bioscience, USA) was used to screen the cytochrome P450 (CYP2E1) inhibitors from 22 Chinese medicine guiding drugs and 10 excipients and microsomal cytochrome P450 (CYP2E1) was synthesized from cDNA (BD Bioscience, USA). The principle of the screening kit is to measure the percentage of CYP2E inhibition, after adding the test sample to substrate MFC (7-Methoxy-4-trifluoromethyl coumarin) and cytochrome P450 (CYP2E1), by measuring the synthesis of standard CYP2E1 metabolite (HFC, 7-Hydroxy-4-trifluoromethyl coumarin) and use control HFC as baseline.
Sequence of cytochrome P450 2E1 (CYP2E1) (P05181 whole entry): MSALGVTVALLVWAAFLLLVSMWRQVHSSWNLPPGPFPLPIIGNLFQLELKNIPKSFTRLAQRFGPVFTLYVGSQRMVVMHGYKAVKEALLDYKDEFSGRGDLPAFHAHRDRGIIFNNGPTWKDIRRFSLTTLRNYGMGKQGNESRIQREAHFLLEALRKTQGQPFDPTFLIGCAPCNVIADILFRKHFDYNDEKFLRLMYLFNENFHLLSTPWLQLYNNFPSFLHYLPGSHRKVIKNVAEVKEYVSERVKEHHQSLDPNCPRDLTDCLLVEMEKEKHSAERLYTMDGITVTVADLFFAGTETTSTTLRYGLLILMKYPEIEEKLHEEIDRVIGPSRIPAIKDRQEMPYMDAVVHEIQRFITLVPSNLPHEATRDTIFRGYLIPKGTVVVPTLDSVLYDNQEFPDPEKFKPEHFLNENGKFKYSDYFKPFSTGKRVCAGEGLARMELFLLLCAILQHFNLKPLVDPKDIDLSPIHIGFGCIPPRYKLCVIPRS
a. 149 μl NADPH-Cofactor Mix and 1 μl 20 mM DDTC were added to the #1 well in a 96-well plate and mixed thoroughly,
b. Add 100 μl Cofactor/acetonitrile mix to #2 to #12 wells, and well #1 to #8 are positive control. Well #9 and 10 are control and well #11 and #12 are blank,
c. […] Preparation of Experimental Groups: a. […] Transfer 50 μl from well #1 and #2 and added to well #3 and mixed thoroughly (triplicate for each sample), 3. Initiation and Termination of the Reaction: a. The 96-well plate was incubated at 37° C. for […], b. 100 μl of Enzyme/Substrate Mix was added to every well and mixed thoroughly except the blank wells, c. The 96-well plate was incubated at 37° C. for 40 min, d. 75 μl Stop Solution was added to every well and mixed thoroughly, e. Immediately add 100 μl Enzyme/Substrate Mix to blank wells and mixed thoroughly, f. Measure with a Fluoroskan Ascent FL (Thermo Electron Corporation, Finland) with excitation at 405 nm and emission at 538 nm, 4. The fluorescence was transverse into CYP 2E1 metabolite standard (HFC) concentration (pmol) and the percentage (%) of CYP 2E1 inhibition was calculated using control as baseline by following equation: […]

Data set [11] deals with 129/sv mice. The experiment in a line: Mouse study of INH/RIF(/PZA) with i.p. Kaempferol or Quercetin.
From the text: Animals were randomized into one of seven groups, each involving five treatments.
All mice were subjected to GSP tests.
Setting [12] is: i.p. daily 49 days, PZA 500 mg/kg, BNPP 50 mg/kg.
Where [13] appears, read: daily i.p. 3 weeks, INH/RIF 50/100 mg/kg, Kaempferol 3.78 mg/kg.

T2 sequence (P05181 whole entry): as above
T1 sequence (P05181 whole entry): as above

Broadly, the inhibition is the change of the read-out against control, counted positive when it falls. On to `OC[C@@H](O)[C@@H](O)[C@H](O)[C@@H](O)CO` [Sorbitol], for which the inhibition at 30 min, […] in [1] came to 4.4 ± 1.7%. For the same molecule, in [2], the inhibition at 30 min, 0.08 % (w/v) is 5.6 ± 0.5% and the inhibition at 30 min, 0.167 % (w/v) was 16.1 ± 0.7%.

In the case of `NNC(=O)c1ccncc1` [INH, isoniazid], the GEC values in data set [3] (21 days) is on record as 3.4±0.6 mg/min·kg. For the same molecule, in data set [3] (i.p. once daily 21 days), the “plasma ALT activities” value is reported as 52±3 IU/L, the “plasma AST activities” value is on record as 129±10 IU/L and the “plasma concentrations of 8-iso-PGF2α” value stood at 0.151 ± 0.026 ng/mL. In addition, in data set [3] (three weeks, H&E, EM, in words), the liver histopathology entry is recorded as “showed hepatocellular damage”.

Take `OC[C@H]1O[C@H](O[C@]2(CCl)O[C@H](CCl)[C@@H](O)[C@@H]2O)[C@H](O)[C@@H](O)[C@H]1Cl` [Sucralose]: the “GSP values over treatment time” value in [4] is reported as “remained constant”. In data set [2], the inhibition at 30 min, 16.5 µM was found to be 37.1 ± 2.8%; the inhibition at 30 min, 33 µM was 45.8 ± 4%; the inhibition at 30 min, 66 µM came to 55.8 ± 2%. The “Minimum Effective Dose” value in data set [5] (Table 7) came out at 22 mg.

Consider Sodium starch glycolate, for which the inhibition in data set [6] was found to be 34.7 ± 1.3%.

Regarding `OCc1ccccc1` [Benzyl alcohol], the inhibition at 30 min, […] in data set [1] worked out at 7.7 ± 2.6%. In data set [2], the inhibition at 30 min, 0.08 % (w/v) is 6.7 ± 1% and the inhibition at 30 min, 0.167 % (w/v) is -10.3 ± 6.3%.

`NC(=O)c1cnccn1` [PZA, pyrazinamide]: in [7] (setting [12]), the “plasma ALT activities” value stood at 91±11 IU/L and the “plasma AST activities” value amounted to 179±10 IU/L. The liver histopathology result in [7] (seven weeks, in words) was “showed hepatocellular damage”.

As for `O=C1NS(=O)(=O)c2ccccc21` [Saccharin], in data set [4], the “GSP values over treatment time” value is reported as “remained constant”. Moreover, in data set [2], the inhibition at 30 min, 16.5 µM came out at 29.4 ± 2.7%; the inhibition at 30 min, 33 µM was found to be 51.2 ± 0.9%; the inhibition at 30 min, 66 µM stood at 78.5 ± 2.1%. The “Minimum Effective Dose” value in data set [5] (Table 7) was determined as 10 mg.

For the molecule `OC[C@@H](O)[C@@H](O)[C@H](O)[C@H](O)CO` [Mannitol], the Amidase inhibition was 58.3 ± 4.3% in [8] (0.0005%), 52.8 ± 7.6% in data set [8] (0.005%) and 1.9 ± 6.0% in [8] (0.05%). The “GSP values over treatment time” value in [4] was “remained constant”; in data set [9], “reamined constant”. For the same molecule, the inhibition at 30 min, 16.5 µM in [2] worked out at 44.8 ± 1.8%. Also, the inhibition at 30 min, 33 µM in data set [2] came out at 51.2 ± 2.1%. In [2], the inhibition at 30 min, 66 µM is 54.5 ± 4.2%. Besides, the “Minimum Effective Dose” value in [5] (Table 7) is on record as 10 mg.

Tween 80: in data set [6], the inhibition is 23.1 ± 3%.

Regarding `CCCCCCCCCCCCCCCCCC(=O)OCC(O)CO` (centres unmarked) [Glycerrin monostearate], the inhibition in data set [6] is 5.8 ± 1.7%. In addition, the “Inhibition of CYP 2E1” value in [5] (0.08% (w/v)) was 7.4 ± 2.9%; in data set [5] (0.167% (w/v)), 6.9 ± 3.8%.

For `O=c1c(O)c(-c2ccc(O)cc2)oc2cc(O)cc(O)c12` [Kaempferol], the “Minimum Effective Dose” value in [10] stood at 16 mg. Further, the “GSP values over treatment time” value in data set [4] is reported as “remained constant”. Moreover, in [5] (Table 6, minimum tested concentration (mg/L) × volume of human liver and intestine (3 L)), the “Minimum Effective Dose” value is given as 16 mg. Further, in [11] (Kaempferol 1.89 mg/kg with INH/RIF, in words), the liver function tests result was “no obvious reduction”. Also, in data set [11] (setting [13]), the GOT came to 89±19 U/L and the GPT was 48±21 U/L.
